Compound | melting point [°C]
NS(=O)(=O)c1ccc(-n2nc(C(F)(F)F)c(C3CC3)c2-c2ccccc2)cc1 | 173 to 174
COc1cc(CCNC(=O)[C@@H](NC(=O)OC(C)(C)C)C(C)C)ccc1OC/C=C\c1ccc(Cl)cc1 | 82 to 84
Nc1csc(-c2ccccc2)c1 | 76 to 78
O=C(NC1CC1)c1ccc(N2CCNCC2)c(F)c1 | 141 to 143
COC(=O)C1=C(C)NC(C)=C(c2nc(CS(=O)(=O)Cc3ccccc3)no2)C1c1cccc([N+](=O)[O-])c1 (centres undefined) | 227
Cc1c(C(=O)Nc2ccc(Cl)c([N+](=O)[O-])c2)cnn1-c1ccc(C(F)(F)F)cc1 | 206 to 208
C#CCOC1c2ccccc2Oc2ccccc21 | 74 to 76
CCCCCCc1cnn(-c2ccccn2)c1O | 37 to 38
CCOC(=O)c1cc2cc(Oc3ccc(S(C)(=O)=O)cc3)cc(OCc3ccccc3)c2[nH]1 | 148 to 149
CCC(C)(C)NCC(O)c1ccc(N)c(C#N)c1 (centres undefined) | 143
CCOP(=O)(OCC)c1nc(N2CCCC2)nc(N2CCCC2)n1 | 65 to 69
Cc1cc(F)ccc1OC1CC(C#CC(C)N(O)C(N)=O)C1 (single isomer, unassigned; (+)) | 139 to 140
CCOC(=O)/C=C/c1ccc2c(=O)n(CC(C)C)c(CNC(=O)OC(C)(C)C)c(-c3ccccc3)c2c1 | 147 to 148
Cn1c(=O)c2cccnc2n(-c2cccc([N+](=O)[O-])c2)c1=O | 234 to 235
CCC(C(C)=CC(CNC(=O)C1=NNC(=O)CC1)=NO)[N+](=O)[O-] (centres undefined) | 129 to 130
COC(=O)c1ccc(F)c2c1OCC=C2 | 65 to 67
CCCn1nc(C(C)C)c(C(=O)OCOC(C)=O)c1Cc1ccc(-c2ccccc2-c2nnn(C(c3ccccc3)(c3ccccc3)c3ccccc3)n2)cc1 | 124 to 128
O=C(O)C1=C(c2ccccc2)C(c2ccccc2)OC1=O (centres undefined) | 116 to 117
COc1ccc(-c2cc(C(F)F)n3ncc(-c4ccncc4)c3n2)cc1 | 206
CC(C)n1c(=O)ccc2cnc(Nc3cccc([N+](=O)[O-])c3)nc21 | 202 to 203
O=C(CCCCCSc1ccc(Cl)cc1)NO | 83 to 85
CCC12CCC3C4CCC(=O)C=C4CCC3C1CCC2(O)C(C)O (centres undefined) | 159 to 164
CC(C)(C)c1cc(CCc2cc(C(C)(C)C)c(O)c(C(C)(C)C)c2)cc(C(C)(C)C)c1O | 170 to 171
COc1ccc(C2C(C(=O)c3ccc(N4CCOCC4)cc3)=C(O)C(=O)N2c2ccc(C)nn2)cc1 (centres undefined) | 232
CC(I)CC(F)(F)C(F)(F)C(F)(F)C(F)(F)C(F)(F)C(F)(F)CC(C)I (centres undefined) | 53

Other lines, results leading:

melting point [°C] | Compound
148 to 150 | CCOC(NC(=O)c1ccccc1)C(N)=O (centres undefined)
250 to 252 | O=C1CCC(N2Cc3c(CNC(=O)Nc4cccc(Cl)c4)cccc3C2=O)C(=O)N1 (centres undefined)
216 | O=C(Nc1nonc1-c1ccc(Cl)cc1)NC1CCCCC1
47 to 48 | CCCCCCCCCCCCCCCCCC(=O)NCC(O)C(C)(O)CCCC(C)CCCC(C)CCCC(C)C (centres undefined)
162 to 164 | O=C(O)CN1CN(c2ccccc2)C2(CCCCC2)C1
110 to 112 | CC1NC(c2ccc(Cl)cc2)=NO1 (centres undefined)
164 to 165 | Cc1n[nH]c(-c2ccncc2)c1-c1ccccc1
136 to 137 | CCCCS(=O)(=O)Nc1cccc(COc2cccc3cccnc23)c1
285 to 290 | Cc1ccc2c(O)c(CS(C)(=O)=O)cnc2c1
80 to 84 | CN1CCN(c2cc(Br)cc3c2c(=O)n(Cc2ccccc2)c(=O)n3Cc2ccccc2)CC1
156 to 157 | Nc1nnc(-c2ccc(CN3CCCCCC3)s2)s1
179 to 181 | COc1cccc(NS(=O)(=O)c2ccc(N3CCNC3=O)cc2)c1
134 to 135 | CCCc1nc2c(N)nc3ccccc3c2n1CCCCCC(=O)N(C)OC
197 to 199 | N#Cc1cnn(-c2ccc(Cl)c(Cl)c2Cl)c1NCCO
